In US20120220528A1, “SYSTEMS AND METHODS FOR THERAPY OF KIDNEY DISEASE AND/OR HEART FAILURE USING CHIMERIC NATRIURETIC PEPTIDES” (MEDTRONIC, INC., priority 2011, published 2012):
Entries after “also recorded” stand apart in the source; their conditions may differ. Bridges are numbered along the chain shown (N, C = ends). Where no end group is shown, it is not given here.

Experiments:
healthy canines [1] = test: Healthy canines: diuresis and natriuresis after subcutaneous bolus; type: in vivo, canine; details: SQ bolus, BNP 25 μg/kg
healthy canines [2] = test: Healthy canines: diuresis and natriuresis with IV infusion; type: in vivo, canine; details: one-hour IV infusion; CD-NP 100 ng/kg·min, BNP 30 ng/kg·min
[3] = system: Human renal medullary epithelial cells; test: In vitro cell-based assay of cGMP production; details: 9000, 3000, 300, 30, 10 and 0 nM, 15 minutes, ELISA

Substance	sodium excretion (natriuresis) following subcutaneous bolus (healthy canines [1]; CD-NP 27 μg/kg)	urine flow following subcutaneous bolus vs baseline (healthy canines [1]; CD-NP 27 μg/kg (equimolar))	sodium excretion (healthy canines [2])	urine flow from baseline (healthy canines [2])	stimulation of cGMP production [3]
BNP: commercial preparation of Natrecor; recombinant form of the 32 amino acid human B-type natriuretic peptide, comparative natriuretic peptide	increase	increase; also recorded: statistically significant	increasing trend	increasing trend	
ANP: human atrial natriuretic peptide (Phoenix Pharmaceuticals), control; ligand to the NPR-A receptor (SLRRSSCFGGRMDRIGAQSGLGCNSFRY; disulfide 7-23 (inferred); ends not checked; UniProt P01160 124-151, looked up)					significantly less
